# According to BindingDB's records for doi:10.1021/jm0309194 (University of Innsbruck, 2003):
# Tests used:
# [1] = In vitro binding affinity was determined against butyrylcholinesterase from torpedo californica
# [2] = In vitro anticholinesterase activity against butyrylcholinesterase from torpedo californica
SMILES,Ki [1],IC50 [2]
"C[C@@H]([C@H]1CC[C@H]2[C@@H]3CC[C@H]4C(=O)C(NC(=O)c5ccccc5)=CC[C@]4(C)[C@H]3CC[C@]12C)N(C)C [N-[(5R,8S,9S,10R,13S,14S,17S)-17-((S)-1-Dimethylamino-ethyl)-10,13-dimethyl-4-oxo-4,5,6,7,8,9,10,11,12,13,14,15,16,17-tetradecahydro-1H-cyclopenta[a]phenanthren-3-yl]-benzamide]",2.15 µM,2.49 µM
"C/C=C(\C)C(=O)N[C@H]1CC[C@@]2(C)C(=CC[C@H]3[C@@H]4CC[C@H]([C@H](C)N(C)C)[C@@]4(C)CC[C@@H]32)C1=O [(E)-2-Methyl-but-2-enoic acid [(3S,8S,9S,10R,13S,14S,17S)-17-((S)-1-dimethylamino-ethyl)-10,13-dimethyl-4-oxo-2,3,4,7,8,9,10,11,12,13,14,15,16,17-tetradecahydro-1H-cyclopenta[a]phenanthren-3-yl]-amide]",3.08 µM,2.1 µM
"C/C=C(\C)C(=O)N[C@H]1CC[C@@]2(C)C(=CC[C@H]3C4=CC[C@H]([C@H](C)N(C)C)[C@@]4(C)CC[C@@H]32)C1=O [(E)-2-Methyl-but-2-enoic acid [(3S,8R,9S,10R,13R,17S)-17-((S)-1-dimethylamino-ethyl)-10,13-dimethyl-4-oxo-2,3,4,7,8,9,10,11,12,13,16,17-dodecahydro-1H-cyclopenta[a]phenanthren-3-yl]-amide]",1.6 µM,4.29 µM
"CC(=O)N[C@H]1CC[C@@]2(C)[C@@H](CC[C@@H]3[C@@H]2CC[C@]2(C)[C@@H]([C@H](C)N(C)C)CC[C@@H]32)C1 [N-[(3S,5S,8R,9S,10S,13S,14S,17S)-17-((S)-1-Dimethylamino-ethyl)-10,13-dimethyl-hexadecahydro-cyclopenta[a]phenanthren-3-yl]-acetamide]",7.5 µM,10.3 µM
"C/C(=C\C(=O)N(C)[C@H]1CC[C@@]2(C)[C@@H](CC[C@@H]3[C@@H]2CC[C@]2(C)[C@@H]([C@H](C)N(C)C)CC[C@@H]32)C1)C(C)C [(E)-3,4-Dimethyl-pent-2-enoic acid [(3S,5S,8R,9S,10S,13S,14S,17S)-17-((S)-1-dimethylamino-ethyl)-10,13-dimethyl-hexadecahydro-cyclopenta[a]phenanthren-3-yl]-methyl-amide]",3.4 µM,4.07 µM
"C/C=C(\C)C(=O)N[C@@H]1[C@H](OC(C)=O)[C@@H]2CC[C@@H]3[C@H](CC[C@]4(C)[C@@H]([C@H](C)N(C)C)CC[C@@H]34)[C@@]2(C)C[C@@H]1O [Acetic acid (1S,4S,6R,7R,10R,11S,12S,15S,16S)-17-((S)-1-dimethylamino-ethyl)-2-(S)-hydroxy-10,13-dimethyl-3-((E)-2-methyl-but-2-enoylamino)-hexadecahydro-cyclopenta[a]phenanthren-4-yl ester]",,18.2 µM
"CC(=O)O[C@H]1[C@@H](NC(=O)C=C(C)C)CC[C@]2(C)[C@H]3CC[C@]4(C)[C@@H]([C@H](C)N(C)C)CC[C@H]4[C@@H]3CC[C@@H]12 [Acetic acid (1S,6R,7R,10R,11S,12S,15S,16S)-17-((S)-1-dimethylamino-ethyl)-10,13-dimethyl-3-(3-methyl-but-2-enoylamino)-hexadecahydro-cyclopenta[a]phenanthren-4-yl ester]",2.58 µM,2.3 µM
"CC(=O)O[C@H]1[C@@H](NC(=O)c2ccccc2)[C@@H](O)C[C@]2(C)[C@H]3CC[C@]4(C)[C@@H]([C@H](C)N(C)C)CC[C@H]4[C@@H]3CC[C@@H]12 [Acetic acid (2S,3S,4R,5R,8S,9S,10R,13S,14S,17S)-3-benzoylamino-17-(1-dimethylamino-ethyl)-2-hydroxy-10-methyl-13-(S)-methyl-hexadecahydro-cyclopenta[a]phenanthren-4-yl ester]",20.3 µM,18 µM
"C/C(=C\C(=O)N(C)[C@H]1CC[C@@]2(C)[C@@H](CC[C@@H]3[C@@H]2CC[C@]2(C)C([C@H](C)N(C)C)=CC[C@@H]32)C1)C(C)C [1N-[14-(1-dimethylaminoethyl)-2,15-dimethyl-(1S,7S,10R,11S)-tetracyclo[8.7.0.02,7.011,15]heptadec-13-en-5-yl]-1N,3,4-trimethyl-(E)-2-pentenamide]",9.1 µM,3.65 µM
"CN[C@H]1CC[C@@]2(C)[C@@H](CC[C@@H]3[C@@H]2CC[C@]2(C)[C@@H]([C@H](C)N(C)C(C)=O)CC[C@@H]32)C1 [N-Methyl-N-[1-((3S,5S,8R,9S,10S,13S,14S,17S)-10-methyl-13-(S)-methyl-3-methylamino-hexadecahydro-cyclopenta[a]phenanthren-17-yl)-ethyl]-acetamide]",8.6 µM,16.5 µM
"C[C@@H]([C@H]1CC[C@H]2[C@@H]3CC[C@H]4C[C@@H](N(C)C(=O)/C=C/c5ccccc5)CC[C@]4(C)[C@H]3CC[C@]12C)N(C)C [(E)-N-[(3S,5S,8R,9S,10S,13S,14S,17S)-17-((S)-1-Dimethylamino-ethyl)-10,13-dimethyl-hexadecahydro-cyclopenta[a]phenanthren-3-yl]-N-methyl-3-phenyl-acrylamide]",6.6 µM,4.84 µM
"C/C=C(\C)C(=O)N[C@@H]1[C@H](OC(C)=O)[C@@H]2CC[C@H]3C4=CC[C@H]([C@H](C)N(C)C)[C@@]4(C)CC[C@@H]3[C@@]2(C)C[C@@H]1O [Acetic acid (2S,3S,4R,5R,8R,9S,10R,13R,17S)-17-((S)-1-dimethylamino-ethyl)-2-hydroxy-10,13-dimethyl-3-((E)-2-methyl-but-2-enoylamino)-2,3,4,5,6,7,8,9,10,11,12,13,16,17-tetradecahydro-1H-cyclopenta[a]phenanthren-4-yl ester]",26.3 µM,38.4 µM
"C/C(=C\C(=O)N[C@H]1CC[C@@]2(C)[C@@H](CC[C@@H]3[C@@H]2CC[C@]2(C)[C@@H]([C@H](C)N(C)C)CC[C@@H]32)C1)C(C)C [3,4-Dimethyl-pent-2-enoic acid [(3S,5S,8R,9S,10S,13S,14S,17S)-17-(1-dimethylamino-ethyl)-10-methyl-13-(S)-methyl-hexadecahydro-cyclopenta[a]phenanthren-3-yl]-amide]",3.25 µM,4.63 µM
"C/C=C(\C)C(=O)NC1C=C2CC[C@@H]3[C@H](CC[C@]4(C)C([C@H](C)N(C)C)=CC[C@@H]34)[C@@]2(C)C[C@H]1O (stereo partly drawn) [1N-[14-[1-dimethylamino-(1S)-ethyl]-4-hydroxy-2,15-dimethyl-(1S,2R,4R,5R,10S,11S,15S)-tetracyclo[8.7.0.02,7.011,15]heptadeca-6,13-dien-5-yl]-2-methyl-(E)-2-butenamide]",,23.8 µM
"C[C@@H]([C@H]1CC[C@H]2[C@@H]3CC[C@H]4C[C@@H](NC(=O)c5ccccc5)[C@@H](O)C[C@]4(C)[C@H]3CC[C@]12C)N(C)C [N-[(2S,3R,5S,8R,9S,10S,13S,14S,17S)-17-(1-Dimethylamino-ethyl)-2-hydroxy-10-methyl-13-(S)-methyl-hexadecahydro-cyclopenta[a]phenanthren-3-yl]-benzamide]",16.2 µM,28.9 µM
